Assay results as given in BindingDB's records for PubMed 8531090 (Roche Bioscience, 1995).
Positions of bridges follow the written chain, without caps; N, C: chain ends. Non-standard residues stand in square brackets, D forms with d. Residues, ends and D or L forms follow the SMILES beside them. Chains are numbered I, II in the order given. Dap = NC[C@H](N)C(=O)O

Target: T1, Neuropeptide Y receptor type 1 (Rattus norvegicus, UniProt P21555)
T1 sequence (P21555 whole entry): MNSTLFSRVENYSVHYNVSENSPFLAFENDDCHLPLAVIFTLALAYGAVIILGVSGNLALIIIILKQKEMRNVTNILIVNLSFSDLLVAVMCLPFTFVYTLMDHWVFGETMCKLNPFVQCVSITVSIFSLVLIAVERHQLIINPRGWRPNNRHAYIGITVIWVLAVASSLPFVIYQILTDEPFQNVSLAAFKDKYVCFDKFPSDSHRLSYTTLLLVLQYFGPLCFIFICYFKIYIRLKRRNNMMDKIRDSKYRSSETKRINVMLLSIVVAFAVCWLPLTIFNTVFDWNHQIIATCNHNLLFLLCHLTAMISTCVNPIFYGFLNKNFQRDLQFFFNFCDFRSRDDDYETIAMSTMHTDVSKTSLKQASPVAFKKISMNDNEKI

Ki: 12.6 nM
SMILES: CC[C@H](C)[C@H](N)C(=O)N[C@H]1CCC(=O)NC[C@@H](C(=O)N[C@@H](Cc2ccc(O)cc2)C(=O)N[C@@H](CCCN=C(N)N)C(=O)N[C@@H](CC(C)C)C(=O)N[C@@H](CCCN=C(N)N)C(=O)N[C@@H](Cc2ccc(O)cc2)C(N)=O)NC(=O)[C@@H]2CCCN2C(=O)[C@@H](NC(=O)[C@@H](N)[C@@H](C)CC)CCC(=O)NC[C@@H](C(=O)N[C@@H](Cc2ccc(O)cc2)C(=O)N[C@@H](CCCN=C(N)N)C(=O)N[C@@H](CC(C)C)C(=O)N[C@@H](CCCN=C(N)N)C(=O)N[C@@H](Cc2ccc(O)cc2)C(N)=O)NC(=O)[C@@H]2CCCN2C1=O [1229U91] (I: H-IEP[Dap]YRLRY-NH2 / II: H-IEP[Dap]YRLRY-NH2; amide I:2-II:4, I:4-II:2)
